Reference: patent US8410178B2, “CIS 3,4-dihydroxy-2-(3-methylbutanoyl)-5-(3-methylbutyl)-4-(4-methylpentanoyl)cyclopent-2-en-1-derivatives, substantially enantiomerically pure compositions and methods” (KinDex Therapeutics, LLC, priority 2010, dated 2013)

Assays:
THP-1 cells = assay: TNF-α- and LPS-mediated inflammatory factors in THP-1 cells; format: cell-based, human; conditions: TNF-α and LPS-induced, 50, 25, 12.5 and 3.125 μM
Protocol: The anti-inflammatory effect of (+)-KDT501 was evaluated in human monocytic THP-1 cells.
THP-1 cells (ATCC, Manassas, Va.) were maintained in RPMI1640 in the presence of 10% serum according to manufacturer's instructions. The cells were pre-incubated with (+)-KDT501 at varying concentrations (50, 25, 12.5 and 3.125 μM) for one hour, then stimulated with TNF-α(10 ng/ml; Sigma, St. Louis, Mo.) or E. coli LPS (1 μg/ml; Sigma, St. Louis, Mo.) overnight (16-20 hours). MMP-9 levels in the medium were measured using an ELISA kit (GE Healthcare, Piscataway, N.J.), and cytokines were assayed using a Milliplex MAP human cytokine/chemokine kit (Millipore, Billerica, Mass.). Analytes were quantified using a Luminex 100™ IS. Data were analyzed using a five-parameter logistic method.

[1] = target: T1, angiotensin II receptor type II (AGTR2) (Homo sapiens, UniProt P50052); assay: Competitive binding to AGTR2 ([125I]CGP 42112A); conditions: binding target AGTR2; competitor ligand Angiotensin-II
T1 sequence (P50052 1-363): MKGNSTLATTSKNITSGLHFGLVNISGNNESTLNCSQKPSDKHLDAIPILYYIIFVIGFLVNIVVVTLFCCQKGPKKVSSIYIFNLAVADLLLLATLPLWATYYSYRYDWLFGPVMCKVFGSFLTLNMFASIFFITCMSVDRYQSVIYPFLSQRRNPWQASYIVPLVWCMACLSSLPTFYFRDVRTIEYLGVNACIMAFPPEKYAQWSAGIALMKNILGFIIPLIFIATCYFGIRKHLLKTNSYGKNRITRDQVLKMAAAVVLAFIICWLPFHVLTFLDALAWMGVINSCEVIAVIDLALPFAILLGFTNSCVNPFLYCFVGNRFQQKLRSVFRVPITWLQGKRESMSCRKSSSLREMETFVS

3T3-L1 adipocytes = assay: Lipogenesis in 3T3-L1 adipocytes (Oil Red O staining); format: cell-based, Murine
Protocol: The effect of (+)-KDT501 on lipogenesis was evaluated in 3T3-L1 adipocytes.
Murine 3T3-L1 preadipocytes (ATCC, Rockville, Md.) were maintained in DMEM (Invitrogen, Rockville, Md.) supplemented with 10% fetal bovine serum (FBS; ATCC). As preadipocytes, 3T3-L1 cells have a fibroblastic appearance. They replicate in culture until they form a confluent monolayer, after which cell-cell contact triggers G0/G1 growth arrest. Subsequent stimulation with 3-isobutyl-1-methylxanthane, dexamethasone, and high does of insulin for two days prompts the cells to undergo post-confluent mitotic clonal expansion, exit the cell cycle, and begin to express adipocyte-specific genes. Approximately five days after induction of differentiation, the cells display the characteristic lipid-filled adipocyte phenotype.
Cells were seeded at an initial density of approximately […] in 24-well plates and allowed to grow for 2 days to confluence. […]
Microscopic evaluation was performed at day 0 and every two days throughout testing to assess preadipocyte differentiation to adipocyte morphology. Intracellular lipid was quantified with Oil Red O staining. […] 150 μL of sample was transferred to a 96 well plate and absorbance was measured at 530 nm using a plate reader (Thermo Electron Corp.). […]

[2] = test system: rheumatoid arthritis synovial fibroblasts (RASF); assay: IL-1β-mediated inflammatory factors in RASFs; format: cell-based, Human; conditions: IL-1β-induced, 50, 25, 12.5, and 6.25 μM
Protocol: The anti-inflammatory effect of (+)-KDT501 was evaluated in rheumatoid arthritis synovial fibroblasts (RASF).
Human RASF cells (Asterand, Detroit, Mich.) were cultured and maintained in DMEM/F12 (1:1) medium in the presence of 10% fetal bovine serum. Cells were subcultured in 24-well plates at a density of 1×10^4 cells per well and allowed to reach 70-80% confluence in two days. Confluent cells in serum-free medium at a final concentration of 0.1% DMSO were incubated for one hour with (+)-KDT501 at varying concentrations (50, 25, 12.5, and 6.25 μM), then stimulated with […] (10 ng/ml) for 20-24 hours. MMP-13 levels in the medium were measured using an ELISA kit (GE Healthcare, Piscataway, N.J.), and PGE2 levels were measured using an Immuno Assay Kit (Assay Designs, Ann Arbor, Mich.).

For CC(C)CCC(=O)[C@@]1(O)C(O)=C(C(=O)CC(C)C)C(=O)[C@@H]1CCC(C)C.[K] [(+)-KDT501, (+)-(4S,5R)-3,4-dihydroxy-2-(3-methylbutanoyl)-5-(3-methylbutyl)-4-(4-methylpentanoyl)cyclopent-2-en-1-one potassium salt], which “expression of IL-1β” value (THP-1 cells) is on record?
The value was “inhibited”.

And the “expression of MCP-1” value (THP-1 cells)?
Its value is “inhibited”.

And the “expression of MIP-1α” value (THP-1 cells)?
The value was “inhibited”.

What about the “expression of MMP-9” value (THP-1 cells) of the same molecule?
The value was “inhibited”.

What about the “expression of RANTES” value (THP-1 cells) of the same molecule?
Its value is “inhibited”.

What about the IC50 [1] of the same molecule?
The IC50 was 14 µM.

What about the Ki [1] of the same molecule?
The Ki was 7.1 µM.

And the nH [1]?
Its nH is 1.4.

And the “lipogenesis (intracellular lipid, Oil Red O)” value (3T3-L1 adipocytes; 3T3-L1 adipocytes, 6.25, 12.5, and 25 μM)?
Its value is “increased lipogenesis in 3T3-L1 adipocytes in a statistically significant manner”.

What about the adipogenesis (3T3-L1 adipocytes; 3T3-L1 murine fibroblast model) of the same molecule?
Its adipogenesis is “induce both lipogenesis and adipogenesis in a dose-dependent manner”.

What about the “expression of MMP-13” value [2] of the same molecule?
The value was “inhibited”.

And the “expression of PGE2” value [2]?
The value was “inhibited”.
